We go through 4 compounds from patent publication US20040029167A1, “Inducible COMT_II promoter, chimeric gene containing same and plants transformed therewith” (priority 1999, published 2004).

The test relates to COMT II (−1215 to +24)/GUS. Nature of the test: Induction of GUS activity in COMT II (−1215 to +24)/GUS transgenic plants by elicitors and chemical products. The class given is in vivo, Nicotiana tabacum cv. Samsun NN. Conditions: for GUS Activity: leaves 16 h after infiltration, SA 1 mM, INA 1 mM, chitins 100 μg/ml, glucans 200 μg/ml, pectins 200 μg/ml; for Induction %: nontreated control C = 100, 16 h after infiltration, concentrations as for GUS Activity column. The procedure:
The transgenic plants containing the construct COMT II (−1215 to +24)/GUS were treated with various chemical products, regulators of defense reactions, with methyl-2,6-dichloroisonicotinic (INA) and salicylic acid (SA), with fungal elicitors such as glucans or fragments of chitin and an elicitor of plant origin, such as pectin. The GUS activity is expressed in pmol MU/min.mg. The control (C) corresponds to the basal GUS activity in the nontreated transformed plants.
The induction of the 1239 bp promoter was studied during injury or after treatment with methyl jasmonate (molecule which plays a role in defense response signaling during injury) or with benzothiadiazole (BTH) (chemical SAR-inducer). The GUS activity is measured 16 h after treatment.
The COMT II and GUS activities were assayed on 100 mg of tissues. The tissue is homogenized in a 100 mM sodium phosphate buffer at pH 7.5 containing 10 mM of DTT, after addition of polyclar AT (Serva) and of quartz. The crude extracts are clarified by centrifugation and by filtration on glass wool. The GUS and COMT II activities are measured on the same crude extracts. For measuring the COMT II activity, an aliquot of the protein extract is added to 1 ml of phosphate buffer comprising 100 μM of catechol and 50 μM of tritiated S-adenosyl-L-methionine (1.5×10^5 cpm/ml) and incubated for 3 hours at 37° C. The reaction is stopped by adding 100 μl of 9M sulfuric acid. The radioactive reaction product, […], is extracted with 5 ml of an NA scintillation solution (Beckman) and the radioactivity is counted on a Beckman LS 9000 machine. The fluorimetric measurement of the GUS activity is performed on the same samples, according to the procedure of Jefferson et al. (1987). The protein content is determined by the Bradford method (1976) using Biorad reagents.
Treatment with an elicitor: Solutions are infiltrated, using a syringe equipped with a fine needle, in the mesophyl of the leaves. The infiltrated regions are delimited with a felt-tip marker. The infiltrated regions are harvested 16 hours after treatment. The leaves are treated with a solution of β-megaspermine, a protein elicitor purified from a Phytophthora megasperma culture medium (Kauffmann et al., 1993), or of oligosaccharides such as chitin oligomers (100 μg/ml), glucan fragments (200 μg/ml) and pectin fragments (200 μg/ml). The control plants are infiltrated with water.
Chemical treatments: (1) Solutions of SA (1 mM) or of INA (50 mM) are infiltrated into tobacco leaves using.the protocol described for the treatment with elicitors. (2) Under identical culture conditions, solutions of SA (10 mM), INA (1 mM) or BTH (50 mM) are sprayed onto the transgenic plants. The tissues are recovered 16 hours after treatment. Plants treated with water are used as a control. (3) Seven-week-old plants or leaves of vitroplants kept alive on water are transferred into transparent, hermetically sealed dishes and subjected to an atmosphere of 3.5 mM of MeJa (Serva). The tissues are removed at various times after treatment. The control plants are placed in the same dishes without MeJa.

Setting [1] is: 1239 bp promoter, 16 h after treatment.

As for `c1ccc2snnc2c1` [BTH, benzothiadiazole], under setting [1], the induction factors was determined as 2.5. Besides, where the note is “1239 bp promoter, 16 h after treatment, nontreated plants C = 100”, the “Induction of the GUS activity %” value is recorded as 250%.

For the compound `COC(=O)c1cc(Cl)nc(Cl)c1` [INA, methyl-2,6-dichloroisonicotinic], the “GUS Activity” value was 1,700 pmol MU/min.mg and the Induction % is 200%.

Regarding `CC/C=C\CC1C(=O)CCC1CC(=O)OC` (stereo not shown) [Methyl jasmonate, methyl jasmonate], the induction factors under setting [1] amounted to 14.5.

`O=C(O)c1ccccc1O` [SA, salicylic acid]: the “GUS Activity” value was 1,200 pmol MU/min.mg and the Induction % amounted to 200%.
